Assay results: patent publication US11976064B2, “Toll-like receptor agonists” (Pfizer Inc., priority 2019, dated 2024)

Tests used:
[1] = biological target: T1, human toll like receptor 7 (hTLR7) (Homo sapiens, UniProt Q9NYK1); experiment: hTLR7 cell functional assay (HEK-Blue hTLR7 SEAP reporter); format: cell-based; details: HEK293 cells stably overexpressing hTLR7, SEAP reporter; geometric mean when tested more than once
T1 construct: host or cells: HEK293 (HEK-Blue hTLR7)
T1 sequence (Q9NYK1 27-1049): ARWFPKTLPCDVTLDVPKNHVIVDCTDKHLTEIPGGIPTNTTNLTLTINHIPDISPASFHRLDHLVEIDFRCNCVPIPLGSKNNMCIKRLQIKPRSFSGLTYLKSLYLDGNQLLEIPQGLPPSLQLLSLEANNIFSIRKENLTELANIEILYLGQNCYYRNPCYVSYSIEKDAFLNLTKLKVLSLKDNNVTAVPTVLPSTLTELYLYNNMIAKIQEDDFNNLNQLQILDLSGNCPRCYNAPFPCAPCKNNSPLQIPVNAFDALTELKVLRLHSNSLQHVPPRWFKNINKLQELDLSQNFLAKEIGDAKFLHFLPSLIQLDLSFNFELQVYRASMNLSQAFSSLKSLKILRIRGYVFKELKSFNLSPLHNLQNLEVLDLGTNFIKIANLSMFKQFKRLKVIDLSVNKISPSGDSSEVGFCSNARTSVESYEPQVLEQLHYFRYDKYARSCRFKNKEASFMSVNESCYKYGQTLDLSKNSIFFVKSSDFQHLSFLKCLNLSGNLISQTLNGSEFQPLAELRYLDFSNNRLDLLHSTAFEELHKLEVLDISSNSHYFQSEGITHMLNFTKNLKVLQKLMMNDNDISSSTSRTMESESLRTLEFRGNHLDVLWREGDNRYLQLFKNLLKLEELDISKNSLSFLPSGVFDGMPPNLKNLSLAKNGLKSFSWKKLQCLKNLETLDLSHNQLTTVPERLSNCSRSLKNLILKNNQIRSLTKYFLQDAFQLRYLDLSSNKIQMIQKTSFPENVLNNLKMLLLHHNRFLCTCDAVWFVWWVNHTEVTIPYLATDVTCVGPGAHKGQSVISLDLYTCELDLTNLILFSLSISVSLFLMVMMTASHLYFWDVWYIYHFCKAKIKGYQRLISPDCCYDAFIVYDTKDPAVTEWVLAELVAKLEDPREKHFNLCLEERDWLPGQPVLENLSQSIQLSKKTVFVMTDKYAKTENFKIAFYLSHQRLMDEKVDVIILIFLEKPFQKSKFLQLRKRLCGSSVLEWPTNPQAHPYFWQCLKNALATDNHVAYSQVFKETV
Experimental: (§1) The Examples described were tested for biological activity in functional cellular assays using HEK293 cells stably overexpressing human TLR7 or TLR8. The assays tested for the ability of each Example to stimulate secretion of interferon alpha (IFNα) in human primary blood mono nuclear cells (PBMC).
(§2) To determine the ability of each Example to activate the human toll like receptor 7 (hTLR7) or human toll like receptor 8 (hTLR8), cell-based reporter systems were utilized. HEK293 cells stably overexpressing either hTLR7 or hTLR8 along with a reporter gene containing an optimized secreted embryonic alkaline phosphatase gene (SEAP), under the control of the IFN-b minimal promoter fused to five NF-κB and AP-1-binding sites, were obtained from Invivogen (HEK-Blue™ hTLR7, cat #Hkb-ht1r7; HEK-Blue™ hTLR8, cat #Hkb-ht1r8). Stimulation of hTLR7 or hTLR8 in these cells activates NF-κB and AP-1 and induces the production of SEAP which can be quantified using an alkaline phosphatase detection reagent.
(§3) Cells were maintained in Dulbecco's Modified Eagle Media (DMEM) (containing Fetal Bovine Serum (FBS) heat inactivated (10%), Glutamax (2 mM), Penicillin/Streptomycin, Blasticidin (10 μg/ml), Zeocin (100 μg/ml) and Normocin (100 μg/ml)). On day one of the assay, Examples were prepared using 11-point half-log serial dilutions from a 10mM DMSO stock solution and 50 nl was spotted into 384-well Viewplates (PerkinElmer, cat #6007480). Positive control TLR7/8 agonist and negative control (DMSO, no Example) were also spotted within the assay plate and were used to determine percent effect during the analysis process. After resuspension in DMEM assay media containing FBS heat inactivated (10%), Glutamax (2 mM) and Penicillin/Streptomycin, 10,000 cells/20 μl/well were added to previously prepared plates. Plates were incubated overnight (16-20 hrs) at 37° C. in a 5% CO2 environment. Prewetted Microclime lids (Labcyte, LLS-0310) were used to prevent evaporation. On day two of the assay, QUANTI-Blue™ detection reagent was prepared by reconstituting QUANTI-Blue™ powder (InvivoGen, Rep-qb1) with 100 ml of sterile water and allowed to equilibrate to 37° C. for 15 minutes. 20 μl of QUANTI-Blue™ detection reagent was added to each well and plates were incubated at room temperature for 180 min. At the end of the incubation, plates were read on an Envision (Perkin Elmer) plate reader capturing absorbance at 650 nm.
(§4) Using Positive (TLR7/8 agonist) and Negative (DMSO) controls, the percent (%) effect was calculated for each Example using the following equation: effect=100−[100*{(Example−Positive Control)/(Negative Control−Positive Control)}]
(§5) The % effect at each concentration of each Example was calculated utilizing the ABase software suite (IBDS) and was relative to the amount of SEAP produced in the positive and negative control wells contained within each assay plate. The concentrations and % effect values for each Example were fit using a 4-parameter logistic model in ABase and the concentration of each Example that produced 50% response (EC50) was calculated.

[2] = biological target: T2, human toll like receptor 8 (hTLR8) (Homo sapiens, UniProt Q9NR97); experiment: hTLR8 cell functional assay (HEK-Blue hTLR8 SEAP reporter); format: cell-based; details: HEK293 cells stably overexpressing hTLR8, SEAP reporter; geometric mean when tested more than once
T2 construct: host or cells: HEK293 (HEK-Blue hTLR8)
T2 sequence (Q9NR97 27-1041): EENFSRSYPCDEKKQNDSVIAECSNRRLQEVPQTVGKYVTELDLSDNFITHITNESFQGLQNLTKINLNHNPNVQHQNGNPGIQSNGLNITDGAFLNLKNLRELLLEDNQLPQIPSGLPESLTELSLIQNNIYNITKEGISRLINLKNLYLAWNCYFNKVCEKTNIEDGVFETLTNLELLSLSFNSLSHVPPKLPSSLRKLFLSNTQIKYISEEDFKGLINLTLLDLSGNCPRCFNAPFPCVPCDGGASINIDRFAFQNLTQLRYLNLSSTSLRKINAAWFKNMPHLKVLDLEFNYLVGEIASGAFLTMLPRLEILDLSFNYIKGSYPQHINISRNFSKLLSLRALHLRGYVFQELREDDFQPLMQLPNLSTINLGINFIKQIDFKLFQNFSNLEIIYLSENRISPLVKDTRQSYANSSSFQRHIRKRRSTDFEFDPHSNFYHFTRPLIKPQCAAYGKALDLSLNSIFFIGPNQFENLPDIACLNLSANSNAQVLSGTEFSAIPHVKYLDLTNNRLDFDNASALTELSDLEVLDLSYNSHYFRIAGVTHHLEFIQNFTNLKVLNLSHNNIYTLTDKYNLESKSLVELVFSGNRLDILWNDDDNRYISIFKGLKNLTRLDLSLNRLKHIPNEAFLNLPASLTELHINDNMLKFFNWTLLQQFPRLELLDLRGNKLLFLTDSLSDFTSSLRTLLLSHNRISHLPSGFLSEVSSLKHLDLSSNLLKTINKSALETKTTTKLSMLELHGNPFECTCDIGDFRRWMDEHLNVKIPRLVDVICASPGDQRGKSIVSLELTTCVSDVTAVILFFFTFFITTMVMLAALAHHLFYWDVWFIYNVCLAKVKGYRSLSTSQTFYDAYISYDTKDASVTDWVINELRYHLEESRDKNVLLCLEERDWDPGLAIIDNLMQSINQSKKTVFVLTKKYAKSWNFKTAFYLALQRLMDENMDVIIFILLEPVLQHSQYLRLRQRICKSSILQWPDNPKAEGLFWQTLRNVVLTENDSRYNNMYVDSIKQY
Experimental: as §1, §2, §3, §4, §5

[3] = system: superficial basal cell carcinomas; details: marketed 5% cream (Aldara); cited from earlier work

CCCCc1nc2c(N)nc(C)c(C)c2n1CC(C)(CO)CO [Example 11, 2-((4-amino-2-butyl-6,7-dimethyl-1H-imidazo[4,5-c]pyridin-1-yl)methyl)-2-methylpropane-1,3-diol]
EC50 [1]: 13 nM | EC50 [2]: 160 nM

CCOCc1nc2c(N)nc3c(c2n1CC(C)(CO)CO)CCC3 [Example 4, 2-((4-amino-2-(ethoxymethyl)-7,8-dihydrocyclopenta[b]imidazo[4,5-d]pyridin-1(6H)-yl)methyl)-2-methylpropane-1,3-diol]
EC50 [1]: 54 nM | EC50 [2]: 400 nM

CCOCc1nc2c(N)nc3c(c2n1CC(C)(CO)CO)CCCC3 [Example 5, 2-((4-amino-2-(ethoxymethyl)-6,7,8,9-tetrahydro-1H-imidazo[4,5-c]quinolin-1-yl)methyl)-2-methylpropane-1,3-diol]
EC50 [1]: 42 nM | EC50 [2]: 273 nM

CCCCCc1nc2c(N)nc3ccccc3c2n1CC(C)(CO)CO [Example 12, 2-((4-amino-2-pentyl-1H-imidazo[4,5-c]quinolin-1-yl)methyl)-2-methylpropane-1,3-diol]
EC50 [1]: 9 nM | EC50 [2]: 191 nM

COCCc1nc2c(N)nc3c(c2n1CC(C)(CO)CO)CCC3 [Example 17, 2-((4-amino-2-(2-methoxyethyl)-7,8-dihydrocyclopenta[b]imidazo[4,5-d]pyridin-1(6H)-yl)methyl)-2-methylpropane-1,3-diol]
EC50 [1]: 156 nM | EC50 [2]: 1060 nM

COCCc1nc2c(N)nc3c(c2n1CC(C)(CO)CO)CCCC3 [Example 18, 2-((4-amino-2-(2-methoxyethyl)-6,7,8,9-tetrahydro-1H-imidazo[4,5-c]quinolin-1-yl)methyl)-2-methylpropane-1,3-diol]
EC50 [1]: 16 nM | EC50 [2]: 119 nM

CC(C)Cn1cnc2c(N)nc3ccccc3c21 [Imiquimod]
5-year clearance of superficial basal cell carcinomas [3]: approximately 80%

COCCc1nc2c(N)nc3ccccc3c2n1CC(C)(CO)CO [Example 19, 2-((4-amino-2-(2-methoxyethyl)-1H-imidazo[4,5-c]quinolin-1-yl)methyl)-2-methylpropane-1,3-diol]
EC50 [1]: 9 nM | EC50 [2]: 310 nM
